pIC50: −log10 of the molar value.
How the values were obtained:
[1] = molecular target: Y641N EZH2 (Homo sapiens, UniProt Q15910, Y641N); assay: Y641N EZH2 activity inhibition assay (as EZH2 assay, reconstituted H3K27Me2 oligonucleosomes as substrate); assay type: biochemical; conditions: Y641N EZH2 mutant enzyme
Description: (§1) EZH2 Assay: Assays were carried out by mixing rPRC2 together with biotinylated oligonucleosome substrates in the presence of the radio-labeled enzyme co-factor, S-adenosyl-L-methionine (^3H SAM) (Perkin Elmer) and monitoring the enzymatically mediated transfer of tritiated methyl groups from ^3H SAM to histone lysine residues. The amount of resulting tritiated methyl histone product was measured by first capturing the biotinylated oligonucleosomes in streptavidin (SAV) coated FlashPlates (Perkin Elmer), followed by a wash step to remove un-reacted ^3H SAM, and then counting on a TopCount NXT 384 well plate scintillation counter (Perkin Elmer). The final assay conditions for EZH2 were as follows: 50 mM Tris Buffer pH 8.5, 1 mM DTT, 69 μM Brij-35 detergent, 5.0 mM MgCl2, 0.1 mg/mL BSA, 0.2 μM ^3H SAM, 0.2 μM biotinylated oligonucleosomes, 3.6 μM H3K27me3 peptide and 2 nM EZH2.
(§2) A 12.5 μL volume of the HMT enzyme, H3K27me3 peptide and oligonucleosome substrate in assay buffer was added to each well of the assay plate using a Multidrop Combi (ThermoFisher). Compounds were pre-incubated with the enzyme for 20 min, followed by initiation of the methyltransferase reaction by addition of 12.5 μL of 3H SAM in assay buffer (final volume=25 μL). The final concentrations of compounds ranged from a top default concentration of 80 μM down to 0.16 μM in ten 2-fold dilution steps. Reactions were carried out for 60 minutes and quenched with 20 μL per well of 1.96 mM SAH, 50 mM Tris PH 8.5, 200 mM EDTA. Stopped reactions were transferred to SAV coated Flashplates (Perkin Elmer), incubated for 120 min, washed with a plate washer, and then read on the TopCount NXT (1.0 min/well) to measure the amount of methyl histone product formed during the reaction.

[2] = molecular target: EZH2 (Homo sapiens, UniProt Q15910); assay: EZH2 activity inhibition assay (rPRC2, 3H SAM, biotinylated oligonucleosomes, FlashPlate); assay type: biochemical; conditions: rPRC2, 2 nM EZH2, 0.2 μM 3H SAM, top concentration 80 μM
Description: as §1, with “Elmer).” for “Elmer). The final assay conditions for EZH2 were as follows: 50 mM Tris Buffer pH 8.5, 1 mM DTT, 69 μM Brij-35 detergent, 5.0 mM MgCl2, 0.1 mg/mL BSA, 0.2 μM ^3H SAM, 0.2 μM biotinylated oligonucleosomes, 3.6 μM H3K27me3 peptide and 2 nM EZH2.”
as §2, with “The final concentrations of compounds ranged from a top default concentration of 80 μM down to 0.16 μM in ten 2-fold dilution steps. Reactions were carried out for 60 minutes and quenched with 20 μL per well of 1.96 mM SAH, 50 mM Tris PH 8.5, 200 mM EDTA.” left out

EZH2, sequence (Q15910 whole entry): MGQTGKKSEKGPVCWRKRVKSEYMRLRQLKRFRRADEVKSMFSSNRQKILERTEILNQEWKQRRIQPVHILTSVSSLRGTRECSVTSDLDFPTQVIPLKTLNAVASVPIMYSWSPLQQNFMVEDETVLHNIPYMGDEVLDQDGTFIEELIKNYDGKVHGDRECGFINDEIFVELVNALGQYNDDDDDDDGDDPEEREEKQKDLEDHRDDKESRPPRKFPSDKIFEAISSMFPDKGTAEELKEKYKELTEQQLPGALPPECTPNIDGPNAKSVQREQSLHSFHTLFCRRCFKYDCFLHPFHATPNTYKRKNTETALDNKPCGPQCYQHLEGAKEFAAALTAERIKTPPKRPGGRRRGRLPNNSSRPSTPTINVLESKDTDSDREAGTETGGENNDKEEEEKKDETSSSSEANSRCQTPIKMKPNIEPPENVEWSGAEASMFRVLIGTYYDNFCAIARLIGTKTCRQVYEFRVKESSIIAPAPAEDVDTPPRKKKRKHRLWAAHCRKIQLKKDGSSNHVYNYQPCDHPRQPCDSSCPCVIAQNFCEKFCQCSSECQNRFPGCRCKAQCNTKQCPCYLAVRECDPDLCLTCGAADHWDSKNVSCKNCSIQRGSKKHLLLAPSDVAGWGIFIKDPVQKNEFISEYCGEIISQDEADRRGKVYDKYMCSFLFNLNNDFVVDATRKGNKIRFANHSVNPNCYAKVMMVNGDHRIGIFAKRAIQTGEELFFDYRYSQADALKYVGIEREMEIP
EZH2, sequence (O75530 whole entry partner): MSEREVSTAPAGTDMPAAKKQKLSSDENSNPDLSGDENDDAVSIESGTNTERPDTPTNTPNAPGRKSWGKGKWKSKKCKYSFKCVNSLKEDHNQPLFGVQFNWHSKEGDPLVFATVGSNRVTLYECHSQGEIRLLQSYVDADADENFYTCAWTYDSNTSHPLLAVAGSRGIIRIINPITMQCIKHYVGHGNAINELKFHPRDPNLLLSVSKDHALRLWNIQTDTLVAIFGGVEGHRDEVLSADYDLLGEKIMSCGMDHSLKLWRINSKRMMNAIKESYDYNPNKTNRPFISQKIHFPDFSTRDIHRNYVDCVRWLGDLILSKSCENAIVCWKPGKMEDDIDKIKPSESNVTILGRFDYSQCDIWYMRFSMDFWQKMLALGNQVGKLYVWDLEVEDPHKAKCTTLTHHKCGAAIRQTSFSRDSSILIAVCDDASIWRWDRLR
EZH2, sequence (Q15022 whole entry partner): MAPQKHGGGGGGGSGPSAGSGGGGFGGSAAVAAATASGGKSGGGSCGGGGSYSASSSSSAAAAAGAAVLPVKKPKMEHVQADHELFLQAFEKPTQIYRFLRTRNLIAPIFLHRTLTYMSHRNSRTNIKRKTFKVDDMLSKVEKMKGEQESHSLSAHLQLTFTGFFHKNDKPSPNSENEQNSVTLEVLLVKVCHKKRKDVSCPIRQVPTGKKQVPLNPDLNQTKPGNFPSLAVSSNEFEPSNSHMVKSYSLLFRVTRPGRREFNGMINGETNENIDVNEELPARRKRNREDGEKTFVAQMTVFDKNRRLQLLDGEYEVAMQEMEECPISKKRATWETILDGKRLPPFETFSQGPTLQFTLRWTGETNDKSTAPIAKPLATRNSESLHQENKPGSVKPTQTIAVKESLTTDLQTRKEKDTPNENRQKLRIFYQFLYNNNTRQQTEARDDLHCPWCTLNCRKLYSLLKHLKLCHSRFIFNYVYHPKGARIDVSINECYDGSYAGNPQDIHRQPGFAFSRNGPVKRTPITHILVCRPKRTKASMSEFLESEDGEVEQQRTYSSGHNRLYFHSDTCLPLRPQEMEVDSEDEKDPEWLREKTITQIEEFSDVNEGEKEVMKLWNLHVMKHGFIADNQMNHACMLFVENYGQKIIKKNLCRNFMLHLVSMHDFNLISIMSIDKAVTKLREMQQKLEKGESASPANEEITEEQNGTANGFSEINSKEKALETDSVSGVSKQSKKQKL
Y641N EZH2, sequence (Q15910 whole entry Y641N): as the sequence (Q15910 whole entry) above, with Y641N counted along it
Y641N EZH2, sequence (O75530 whole entry partner): as the sequence (O75530 whole entry partner) above
Y641N EZH2, sequence (Q15022 whole entry partner): as the sequence (Q15022 whole entry partner) above

SMILES	pIC50 [1]	pIC50 [2]
Cc1cc(C)c(CNC(=O)c2ccc(C(C)Oc3ccccc3)c(F)c2)c(=O)[nH]1 (single isomer, unassigned) [Compound I-160, (R)— or (S)-3-fluoro-N-((2-hydroxy-4,6-dimethylpyridin-3-yl)methyl)-4-(1-phenoxyethyl)benzamide]	< 4.10	< 4.10
Cc1cc(C)c(CNC(=O)c2ccc(C(C)Oc3ccccc3)c(F)c2)c(=O)[nH]1 (single isomer, unassigned) [Compound I-161, (S)— or (R)-3-fluoro-N-((2-hydroxy-4,6-dimethylpyridin-3-yl)methyl)-4-(1-phenoxyethyl)benzamide]	> 6.00	> 6.00
Cc1cc(C)c(CNC(=O)c2ccc(C(C)Oc3ccccc3)cc2)c(=O)[nH]1 (stereo in doubt) [Compound I-30, (S)—N-((2-hydroxy-4,6-dimethylpyridin-3-yl)methyl)-4-(1-phenoxyethyl)benzamide]	< 4.10	4.30 to 5.00
Cc1cc(C)c(CNC(=O)c2ccc(Oc3ccccc3C#N)cc2)c(=O)[nH]1 [Compound I-2, 4-(2-cyanophenoxy)-N-((2-hydroxy-4,6-dimethylpyridin-3-yl)methyl)benzamide]	4.30 to 5.00	5.00 to 6.00
Cc1cc(C)c(CNC(=O)c2ccc(COc3cccc(-c4ccc(N)nc4)c3)cc2)c(=O)[nH]1 [Compound I-3, 4-((3-(6-aminopyridin-3-yl)phenoxy)methyl)-N-((2-hydroxy-4,6-dimethylpyridin-3-yl)methyl)benzamide]	5.00 to 6.00	> 6.00
CCc1cccc(Oc2ccc(C(=O)NCc3c(C)cc(C)[nH]c3=O)cc2C)c1C#N [Compound I-4, 4-(2-cyano-3-ethylphenoxy)-N-((2-hydroxy-4,6-dimethylpyridin-3-yl)methyl)-3-methylbenzamide]		5.00 to 6.00
Cc1cc(C)c(CNC(=O)c2ccc(Oc3cccc(-c4cn[nH]c4)c3C#N)c(Cl)c2)c(=O)[nH]1 [Compound I-5, 3-chloro-4-(2-cyano-3-(1H-pyrazol-4-yl)phenoxy)-N-((2-hydroxy-4,6-dimethylpyridin-3-yl)methyl)benzamide]		5.00 to 6.00
Cc1cc(C)c(CNC(=O)c2ccc(Oc3cccc(-c4ccncc4)c3C#N)c(Cl)c2)c(=O)[nH]1 [Compound I-6, 3-chloro-4-(2-cyano-3-(pyridin-4-yl)phenoxy)-N-((2-hydroxy-4,6-dimethylpyridin-3-yl)methyl)benzamide]		5.00 to 6.00
Cc1cc(C)c(CNC(=O)c2ccc(Oc3ccccc3-c3ccncc3)c(Cl)c2)c(=O)[nH]1 [Compound I-7, 3-chloro-N-((2-hydroxy-4,6-dimethylpyridin-3-yl)methyl)-4-(2-(pyridin-4-yl)phenoxy)benzamide]		5.00 to 6.00
Cc1cc(C)c(CNC(=O)c2ccc(Oc3ccccc3C#N)c(Cl)c2)c(=O)[nH]1 [Compound I-10, 3-chloro-4-(2-cyanophenoxy)-N-((2-hydroxy-4,6-dimethylpyridin-3-yl)methyl)benzamide]	5.00 to 6.00	5.00 to 6.00
Cc1cc(C)c(CNC(=O)c2ccc(COc3ccccc3)cc2)c(=O)[nH]1 [Compound I-11, N-((2-hydroxy-4,6-dimethylpyridin-3-yl)methyl)-4-(phenoxymethyl)benzamide]	5.00 to 6.00	5.00 to 6.00
Cc1cc(C)c(CNC(=O)c2ccc(OCc3ccccc3)cc2)c(=O)[nH]1 [Compound I-12, 4-(benzyloxy)-N-((2-hydroxy-4,6-dimethylpyridin-3-yl)methyl)benzamide]	4.30 to 5.00	5.00 to 6.00
Cc1cc(C)c(CNC(=O)c2ccc(N(C)c3ccccc3)cc2)c(=O)[nH]1 [Compound I-13]	5.00 to 6.00	> 6.00
Cc1cc(C)c(CNC(=O)c2ccc(Oc3ncccn3)cc2)c(=O)[nH]1 [Compound I-14]	< 4.10	< 4.30
COc1ccnc(Oc2ccc(C(=O)NCc3c(C)cc(C)[nH]c3=O)cc2)n1 [Compound I-15]	< 4.10	< 4.30
Cc1cc(C)c(CNC(=O)c2ccc(Oc3ccccc3)nc2)c(=O)[nH]1 [Compound I-16]	4.30 to 5.00	5.00 to 6.00
Cc1cc(C)c(CN(C)C(=O)c2ccc(Oc3cccc(-c4ccncn4)c3C#N)c(Cl)c2)c(O)n1 [Compound I-17, 3-chloro-4-(2-cyano-3-(pyrimidin-4-yl)phenoxy)-N-((2-hydroxy-4,6-dimethylpyridin-3-yl)methyl)-N-methylbenzamide]	< 4.30	5.00 to 6.00

SMILES	pIC50 [1]	pIC50 [2]
Cc1cc(C)c(CNC(=O)c2ccc(Nc3ccccc3)nc2)c(=O)[nH]1 [Compound I-18]	< 4.10	4.30 to 5.00
Cc1cc(C)c(CNC(=O)c2ccc(Nc3ccccc3)cc2)c(=O)[nH]1 [Compound I-19]	4.30 to 5.00	5.00 to 6.00
Cc1cc(C)c(CN(C)C(=O)c2ccc(Oc3ccccc3)cc2)c(O)n1 [Compound I-20, N-((2-hydroxy-4,6-dimethylpyridin-3-yl)methyl)-N-methyl-4-phenoxybenzamide]	< 4.30	5.00 to 6.00
Cc1cc(C)c(CNC(=O)c2ccc(Oc3ccccc3)cn2)c(=O)[nH]1 [Compound I-21, N-((2-hydroxy-4,6-dimethylpyridin-3-yl)methyl)-5-phenoxypicolinamide]	4.30 to 5.00	5.00 to 6.00
Cc1cc(C)c(CNC(=O)c2ccc(Oc3ccccc3)cc2Cl)c(=O)[nH]1 [Compound I-22]	5.00 to 6.00	> 6.00
Cc1cc(C)c(CNC(=O)c2ccc(C(C)Oc3ccccc3)cc2)c(=O)[nH]1 (centres unmarked) [Compound I-23, N-((2-hydroxy-4,6-dimethylpyridin-3-yl)methyl)-4-(1-phenoxyethyl)benzamide]	> 6.00	> 6.00
Cc1cc(C)c(CNC(=O)c2ccc(C(O)c3ccccc3)cc2)c(=O)[nH]1 (centres unmarked) [Compound I-24]	< 4.30	4.30 to 5.00
Cc1cc(C)c(CNC(=O)c2ccc(C(C)(O)c3ccccc3)cc2)c(=O)[nH]1 (centres unmarked) [Compound I-25]	4.30 to 5.00	5.00 to 6.00
Cc1cc(C)c(CNC(=O)c2ccc(S(=O)(=O)c3ccccc3)cc2)c(=O)[nH]1 [Compound I-26, N-((2-hydroxy-4,6-dimethylpyridin-3-yl)methyl)-4-(phenylsulfonyl)benzamide]	< 4.10	4.30 to 5.00
Cc1cc(C)c(CNC(=O)c2ccc(COc3ccccc3)cc2C)c(=O)[nH]1 [Compound I-27, N-((2-hydroxy-4,6-dimethylpyridin-3-yl)methyl)-2-methyl-4-(phenoxymethyl)benzamide]	5.00 to 6.00	> 6.00
Cc1cc(C)c(CNC(=O)c2ccc(Oc3ccccc3)cc2C)c(=O)[nH]1 [Compound I-28, N-((2-hydroxy-4,6-dimethylpyridin-3-yl)methyl)-2-methyl-4-phenoxybenzamide]	4.30 to 5.00	5.00 to 6.00
Cc1cc(C)c(CNC(=O)c2ccc([S+]([O-])c3ccccc3)cc2)c(=O)[nH]1 (centres unmarked) [Compound I-29, N-((2-hydroxy-4,6-dimethylpyridin-3-yl)methyl)-4-(phenylsulfinyl)benzamide]	< 4.10	4.30 to 5.00
Cc1cc(C)c(CNC(=O)c2ccc([C@H](C)Oc3ccccc3)cc2)c(O)n1 [Compound I-31, (S)—N-((2-hydroxy-4,6-dimethylpyridin-3-yl)methyl)-4-(1-phenoxyethyl)benzamide]	> 6.00	> 6.00
COc1cc(Oc2ccccc2)ccc1C(=O)NCc1c(C)cc(C)[nH]c1=O [Compound I-32, N-((2-hydroxy-4,6-dimethylpyridin-3-yl)methyl)-2-methoxy-4-phenoxybenzamide]	5.00 to 6.00	> 6.00
Cc1cc(C)c(CNC(=O)c2ccc(Cc3ccccc3)cc2)c(=O)[nH]1 [Compound I-34, 4-benzyl-N-((2-hydroxy-4,6-dimethylpyridin-3-yl)methyl)benzamide]	5.00 to 6.00	> 6.00
Cc1ccc(OC(C)c2ccc(C(=O)NCc3c(C)cc(C)[nH]c3=O)cc2)cc1 (centres unmarked) [Compound I-35, N-((2-hydroxy-4,6-dimethylpyridin-3-yl)methyl)-4-(1-(p-tolyloxy)ethyl)benzamide]	5.00 to 6.00	> 6.00

From patent US9206128B2 (Constellation Pharmaceuticals, Inc., priority 2011, dated 2015)
